{"source": "patent US20260355328A1", "about": "“A complex comprising a cargo and a targeting moiety binding intelectin-1” (Stichting Radboud universitair medisch centrum, priority 2022, published 2026)", "key": {"[1]": {"experiment": "Biodistribution of full-length lactoferrin, lactoferricin and hLF-6 in LPS-challenged mice (IVIS)", "format": "in vivo", "details": "fluorescent label, i.v., 2 h", "description": "Lactoferrin and lactoferricin are cloned in an expression plasmid containing the C-terminal Sortase-sequence protein-LPETG-HHHHHH. LPETGHHHHHH is SEQ ID NO: 98. Next, the protein is expressed overnight in E. coli and purified from sonicated bacterial cell lysates by Ni-NTA beads using 400 mM imidazole to elute the proteins. After overnight dialysis, full-length lactoferrin and hLF-6 are labelled by means of a Sortase exchange reaction on the C-terminus with a fluorescent dye (Alexa647 or Cy5.5) for 2 h at 4 °C using a fluorescently labelled donor peptide (formula:biotin-GSSG-LPETG-label or biotin-GSSG-LPETG-PEG40k-label) as substrate GSSGLPETG is SEQ ID NO: 99. Excess donor peptide is removed by means of streptavidin binding of the biotin tag on the N-terminus of the donor peptide. Next, the purified labelled protein/peptide is injected into LPS-challenged mice via intravenous injection in the tail vein. Mice are sacrificed after 2 h, and organs harvested for imaging by IVIS. Biodistribution is quantified for each organ, and relative distribution is shown."}, "[2]": {"test_system": "proteoglycans on endothelial and epithelial cells", "details": "literature; cited from earlier work"}, "ITLN-1 [3]": {"molecular_target": "T1, ITLN-1 (Mus musculus, UniProt O88310)", "T1 construct": "ITLN-1 siRNA versus control siRNA", "T1 sequence (O88310 19-298)": "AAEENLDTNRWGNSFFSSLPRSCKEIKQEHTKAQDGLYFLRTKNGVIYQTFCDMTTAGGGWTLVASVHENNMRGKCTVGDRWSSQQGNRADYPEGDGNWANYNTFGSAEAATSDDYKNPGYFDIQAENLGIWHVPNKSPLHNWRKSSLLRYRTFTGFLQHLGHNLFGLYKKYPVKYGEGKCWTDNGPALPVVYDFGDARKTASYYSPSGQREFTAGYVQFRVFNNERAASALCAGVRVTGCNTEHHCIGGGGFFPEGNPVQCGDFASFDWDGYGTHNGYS", "experiment": "ITLN-1 protein expression in mGEnC", "format": "cell-based", "details": "10 ng/ml TNFα, FIG. 2B", "description": "(§1) Conditionally immortalized mouse glomerular endothelial cells (mGEnC) were cultured as previously described (Rops et al. Kidney Int. 2004; 66 (6): 2193-201). Cells were incubated in their respective medium with 10% FCS containing fluorescein-labelled peptides at 5 μM for 20 minutes at 37 °C. In some cases, cells were activated for 16 hours with 10 ng/ml mouse TNFα (Sigma), or co-incubated with 100 μg/ml Alexa Fluor 633-labeled transferrin (Invitrogen Molecular Probes). Pre-treatment with ITLN-1 or control siPool siRNA (siTools Biotech) was performed according to the manufacturer's protocol. Subsequently, cells were detached with trypsin/EDTA and analysed by flow cytometry on a FACSCalibur Flow cytometer (BD Biosciences). For immunostaining, cells or 5-μm cryosections of mouse kidney were fixed for 10 minutes with 4% paraformaldehyde, and in the indicated cases permeabilized with 0.3% Triton X-100 in PBS. Subsequently, cells and cryosections were stained for 1 hour with anti-intelectin-1 (R&D Systems) or anti-LRP-1 (Abcam) antibodies, and after washing incubated for 1 hour with the appropriate Alexa Fluor-labelled secondary antibody (Invitrogen Molecular Probes). Cells and cryosections were analyzed by confocal laser-Scanning microscopy was performed using a TCS SP5 confocal microscope (Leica Microsystems)."}, "[4]": {"experiment": "Proteolytic breakdown and serum protein binding of the peptides", "format": "in vitro ADME"}, "Podocytes": {"test_system": "Podocytes", "experiment": "Uptake in multiple cell lines (Table 2): Podocytes", "format": "cell-based", "details": "fluorescein-labeled peptide, confocal microscopy, Podocytes (mouse)", "description": "(§2) Conditionally immortalized mouse glomerular endothelial cells (mGEnC) were cultured as previously described (Rops et al. Kidney Int. 2004; 66 (6): 2193-201). HeLa cells were employed as a frequently used model cell line and were cultured in DMEM/F12 medium containing 10% fetal calf serum (FCS). For studying uptake, cells were incubated in their respective medium with 10% FCS containing fluorescein-labelled peptides at the indicated concentrations for 20 minutes at 37 °C. In some cases, cells were activated for 16 hours with 10 ng/ml mouse TNFα (Sigma), or co-incubated with Alexa Fluor 633-labeled transferrin (Invitrogen Molecular Probes). Subsequently, cells were washed with PBS and analysed using confocal laser-scanning microscopy on a TCS SP5 confocal microscope (Leica Microsystems), or detached by trypsin/EDTA and analysed on a FACSCalibur Flow cytometer (BD Biosciences) by measuring 20,000 cells.\nas §1, with “Subsequently, cells and cryosections were stained for 1 hour with anti-intelectin-1 (R&D Systems) or anti-LRP-1 (Abcam) antibodies, and after washing incubated for 1 hour with the appropriate Alexa Fluor-labelled secondary antibody (Invitrogen Molecular Probes).” left out"}, "mGEnC treated with TNFα": {"test_system": "mGEnC treated with TNFα", "experiment": "Uptake by mGEnC after activation with TNFα", "format": "cell-based", "details": "10 ng/ml mouse TNFα 16 hours", "description": "as §2, §1"}, "[5]": {"experiment": "Biodistribution of 111In-DOTA-labelled hLF after intravenous injection in healthy mice", "format": "in vivo, C57BI/6 mice", "details": "i.v.", "description": "Female and male 10-12-weeks-old C57BI/6 mice (Charles River) were injected via the tail vein with 50 μl of 200 μM 111 In-DOTA-labelled hLF peptide. Assuming a blood volume of 1.2 ml this would theoretically result in a concentration of ~8.5 μM in the circulation. Urine, blood and organs were collected 4 hours after injection, and radioactivity was measured in a gamma-counter. The percentage injected dose per gram of tissue (% ID/gram) was calculated for each tissue along with % of the absorbed dose."}, "[6]": {"test_system": "heparan sulphate proteoglycans (HSPGs)", "details": "HeLa cells, literature; cited from earlier work"}, "HUVEC": {"test_system": "HUVEC", "experiment": "Uptake in multiple cell lines (Table 2): HUVEC", "format": "cell-based", "details": "fluorescein-labeled peptide, confocal microscopy, HUVEC (human)"}, "mGEnC [7]": {"test_system": "mGEnC", "experiment": "Intracellular localization / co-localization with transferrin in mGEnC (confocal microscopy)", "format": "cell-based, mouse", "details": "FIG. 2C", "description": "as §2\nConditionally immortalized mouse glomerular endothelial cells (mGEnC) were cultured as previously described (Rops et al. Kidney Int. 2004; 66 (6): 2193-201). […] Subsequently, cells were detached with trypsin/EDTA and analysed by flow cytometry on a FACSCalibur Flow cytometer (BD Biosciences). […] Cells and cryosections were analyzed by confocal laser-Scanning microscopy was performed using a TCS SP5 confocal microscope (Leica Microsystems)."}, "[8]": {"test_system": "heparan sulphate on mGEnC", "experiment": "Peptide uptake by mGEnC after removal of heparan sulphate (heparinases)", "format": "cell-based, mouse", "details": "5 μM, FIG. 1D", "description": "(D) Digestion of heparan sulphate from the cell surface has a limited effect on the uptake of lactoferrin-derived peptides (5 μM). Percentage of uptake for heparan sulphate-cleaved compared to undigested cells is shown.\nas §2\nIn order to further substantiate that uptake of hLF occurred by a mechanism different of the one typically observed for CPPs, we addressed the role of heparan sulphate proteoglycans (HSPGs)."}, "hGEnC": {"test_system": "hGEnC", "experiment": "Uptake in multiple cell lines (Table 2): hGEnC", "format": "cell-based", "details": "fluorescein-labeled peptide, confocal microscopy, hGEnC (human)"}, "[9]": {"test_system": "mouse glomerular endothelial cells (mGEnC)", "experiment": "Uptake of fluorescein-labelled peptides by mGEnC (flow cytometry)", "format": "cell-based", "details": "different concentrations, 20 minutes at 37 °C, FIG. 1A", "description": "as §2"}, "mGEnC [10]": {"test_system": "mGEnC", "experiment": "Uptake in multiple cell lines (Table 2): mGEnC", "format": "cell-based", "details": "fluorescein-labeled peptide, confocal microscopy, mGEnC (mouse)", "description": "as §2\nas §1, with “Subsequently, cells and cryosections were stained for 1 hour with anti-intelectin-1 (R&D Systems) or anti-LRP-1 (Abcam) antibodies, and after washing incubated for 1 hour with the appropriate Alexa Fluor-labelled secondary antibody (Invitrogen Molecular Probes).” left out"}, "EOMA": {"test_system": "EOMA", "experiment": "Uptake in multiple cell lines (Table 2): EOMA", "format": "cell-based", "details": "fluorescein-labeled peptide, confocal microscopy, EOMA (mouse)"}, "[11]": {"experiment": "Biodistribution of Cy5.5-hLF in LPS-induced inflammation mouse model", "format": "in vivo, C57BI/6 mice", "description": "At the start, 8- to 10-week-old C57BI/6 mice (Charles River) received an intraperitoneal injection with either 100 μl of 2 mg/kg LPS in 5% glucose solution, or only 5% glucose solution. After 24 hours, mice were injected with 50 μl of 200 μM Cy5.5-labelled peptide. Assuming a blood volume of 1.2 ml this would theoretically result in a concentration of ~8.5 μM in the circulation. After 4 hours, organs were perfused with phosphate buffer, followed by 4% PFA. Organs were removed and peptide distribution was analysed using the In Vivo Imaging System (IVIS; Perkin Elmer). Organs were then fixed by overnight incubation in 4% PFA, followed by overnight incubation in 30% sucrose. Subsequently, organs were frozen for analysis by confocal laser-Scanning microscopy using a TCS SP5 confocal microscope (Leica Microsystems). Glomerular and tubular regions were selected in microscopical pictures from which the mean fluorescence intensity was determined by ImageJ software."}, "HeLa": {"test_system": "HeLa", "experiment": "Uptake in multiple cell lines (Table 2): HeLa", "format": "cell-based", "details": "fluorescein-labeled peptide, confocal microscopy, HeLa (human)", "description": "as §2\nas §1, with “Subsequently, cells and cryosections were stained for 1 hour with anti-intelectin-1 (R&D Systems) or anti-LRP-1 (Abcam) antibodies, and after washing incubated for 1 hour with the appropriate Alexa Fluor-labelled secondary antibody (Invitrogen Molecular Probes).” left out"}, "HeLa cells": {"test_system": "HeLa cells", "experiment": "Uptake of fluorescein-labelled peptides by HeLa cells (flow cytometry)", "format": "cell-based, human", "details": "FIG. 1B", "description": "as §2"}, "ITLN-1 [12]": {"molecular_target": "T1, ITLN-1", "experiment": "Uptake by mGEnC after downregulation of ITLN-1 with siRNA", "format": "cell-based", "details": "peptides at 5 μM, FIG. 2E", "description": "as §1"}}, "data": [{"substance": "lactoferricin", "values": [{"measurement": "bio-distribution", "setting": "[1]", "result": "accumulation predominantly in liver and spleen and less in kidney, brain and intestine"}, {"measurement": "binding to proteoglycans", "setting": "[2]", "result": "bind to proteoglycans on endothelial and epithelial cells"}]}, {"substance": "TNFα", "values": [{"measurement": "ITLN-1 expression after activation", "setting": "ITLN-1 [3]", "result": "augmented ITLN-1 expression"}]}, {"substance": "KCFQWQRNMRKVRGPPVSCIKR [hLF, lactoferrin-derived 22-amino acid peptide]", "values": [{"measurement": "binding to serum proteins as reason for preferential uptake by mGEnC", "setting": "[4]", "result": "not due to a difference in proteolytic breakdown of the peptides before uptake, or a difference in the binding to serum proteins"}, {"measurement": "proteolytic breakdown as reason for preferential uptake by mGEnC", "setting": "[4]; before uptake", "result": "not due to a difference in proteolytic breakdown"}, {"measurement": "Uptake (Table 2)", "setting": "Podocytes", "result": "High"}, {"measurement": "effect of TNFα treatment on uptake", "setting": "mGEnC treated with TNFα", "result": "increased uptake"}, {"measurement": "increase of uptake after TNFα treatment", "setting": "mGEnC treated with TNFα; 5 μM, FIG. 1E", "result": "50-100%"}, {"measurement": "biodistribution (main organ)", "setting": "[5]; 111In-DOTA-labelled, 4 hours, FIG. 3A", "result": "predominantly located in the kidney"}, {"measurement": "concentration in the blood after 4 hours", "setting": "[5]", "result": "< 1", "unit": "%"}, {"measurement": "absorbed dose in kidney and liver combined of total dose in all the organs", "setting": "[5]; 4 hours", "result": "more than 90%"}, {"measurement": "distribution to other organs including intestines, skin and heart, fold lower", "setting": "[5]; 4 hours", "result": "more than 20 fold"}, {"measurement": "distribution to the liver, fold lower than kidney", "setting": "[5]; 4 hours", "result": "approximately 2 fold"}, {"measurement": "kidney targeting, female versus male mice", "setting": "[5]; 4 hours", "result": "No significant differences"}, {"measurement": "peptide concentration in spleen and lungs, fold lower than kidney", "setting": "[5]; 4 hours", "result": "5-10 fold"}, {"measurement": "dependence of uptake on HSPG", "setting": "[6]", "result": "depends on the presence of HSPG"}, {"measurement": "Uptake (Table 2)", "setting": "HUVEC", "result": "High"}, {"measurement": "co-localization with fluorescently-labelled transferrin", "setting": "mGEnC [7]", "result": "co-localized completely"}, {"measurement": "decrease in uptake after removal of heparan sulphate", "setting": "[8]", "result": "~ 20%"}, {"measurement": "Uptake (Table 2)", "setting": "hGEnC", "result": "High"}, {"measurement": "uptake in mGEnC", "setting": "[9]", "result": "much more efficient dose-dependent uptake"}, {"measurement": "Uptake (Table 2)", "setting": "mGEnC [10]", "result": "High"}, {"measurement": "Uptake (Table 2)", "setting": "EOMA", "result": "High"}, {"measurement": "signal in spleen, heart, eyes, brain and lymph nodes", "setting": "[11]; IVIS, LPS-treated and non-treated mice", "result": "virtually undetectable"}, {"measurement": "tubular uptake of non-conjugated / free peptide", "setting": "[11]; i.v. injection in mice", "result": "tubular uptake"}, {"measurement": "Uptake (Table 2)", "setting": "HeLa", "result": "High"}, {"measurement": "uptake in HeLa cells", "setting": "HeLa cells", "result": "show uptake"}, {"measurement": "uptake after ITLN-1 siRNA compared to control siRNA", "setting": "ITLN-1 [12]", "result": "reduced uptake"}]}]}
